From patent US9840513B2 (AbbVie S.à.r.l., priority 2015, dated 2017)

What was measured:
[1] = biological target: T1, F508delCFTR cell surface expression in CFBE41o-F508delCFTR-HRP cells (Homo sapiens, UniProt P13569, DEL508-508); experiment: Cell Surface Expression-Horse Radish Peroxidase (CSE-HRP) Assay; type: cell-based; settings: for EC50: CFBE41o-F508delCFTR-HRP cells, 18-24 hours at 33° C., 8-point curve, highest concentration 20 μM; for Maximum % activity (%): maximum at any tested concentration, normalized to on-plate positive control (3 μM)
T1 construct: fused on or other part: Horseradish peroxidase (HRP) reporter inserted in the fourth exofacial (extracellular) loop of CFTR; expression is doxycycline-inducible
T1 sequence (P13569 with tags, fused parts or gaps DEL508-508 limits assumed): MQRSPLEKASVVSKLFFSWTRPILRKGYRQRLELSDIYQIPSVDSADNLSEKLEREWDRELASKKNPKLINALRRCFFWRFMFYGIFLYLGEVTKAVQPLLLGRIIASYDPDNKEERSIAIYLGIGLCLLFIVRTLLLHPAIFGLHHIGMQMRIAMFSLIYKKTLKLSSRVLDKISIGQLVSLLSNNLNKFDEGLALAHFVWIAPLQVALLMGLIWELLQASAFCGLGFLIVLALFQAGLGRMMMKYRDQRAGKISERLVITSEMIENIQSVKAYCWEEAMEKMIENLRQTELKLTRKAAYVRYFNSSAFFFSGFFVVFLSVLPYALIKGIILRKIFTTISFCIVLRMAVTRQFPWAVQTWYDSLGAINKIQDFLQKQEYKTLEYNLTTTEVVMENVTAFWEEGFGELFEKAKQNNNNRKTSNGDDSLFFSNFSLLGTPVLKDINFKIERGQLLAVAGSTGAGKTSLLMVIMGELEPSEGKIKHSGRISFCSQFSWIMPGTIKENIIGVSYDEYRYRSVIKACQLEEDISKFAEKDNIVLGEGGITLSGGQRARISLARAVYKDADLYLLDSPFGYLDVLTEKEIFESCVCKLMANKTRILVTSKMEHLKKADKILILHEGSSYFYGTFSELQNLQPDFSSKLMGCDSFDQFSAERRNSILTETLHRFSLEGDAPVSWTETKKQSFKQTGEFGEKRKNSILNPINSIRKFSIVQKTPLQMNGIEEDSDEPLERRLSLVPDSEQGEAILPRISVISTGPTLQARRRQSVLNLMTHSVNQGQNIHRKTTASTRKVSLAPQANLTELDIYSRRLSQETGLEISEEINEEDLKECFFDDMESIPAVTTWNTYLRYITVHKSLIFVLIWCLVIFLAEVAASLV
T1 sequence (P13569 919-1480 limits assumed, stated change not applied): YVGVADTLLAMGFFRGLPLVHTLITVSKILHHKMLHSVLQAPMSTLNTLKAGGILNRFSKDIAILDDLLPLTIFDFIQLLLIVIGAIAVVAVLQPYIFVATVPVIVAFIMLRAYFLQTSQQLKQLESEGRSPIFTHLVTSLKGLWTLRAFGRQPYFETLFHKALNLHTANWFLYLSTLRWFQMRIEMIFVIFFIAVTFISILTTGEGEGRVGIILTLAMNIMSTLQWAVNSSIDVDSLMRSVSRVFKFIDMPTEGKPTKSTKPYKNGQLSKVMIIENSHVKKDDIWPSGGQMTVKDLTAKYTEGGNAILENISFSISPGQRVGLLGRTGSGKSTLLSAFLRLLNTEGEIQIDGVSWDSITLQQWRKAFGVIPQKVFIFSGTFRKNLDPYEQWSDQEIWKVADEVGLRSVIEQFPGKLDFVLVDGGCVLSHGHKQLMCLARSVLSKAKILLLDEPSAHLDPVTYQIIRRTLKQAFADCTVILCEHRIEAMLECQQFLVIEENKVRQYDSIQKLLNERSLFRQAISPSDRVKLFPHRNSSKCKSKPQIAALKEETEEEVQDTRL
Outline: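 CFBE41o- cells with HRP-tagged F508delCFTR, expression induced by 0.5 μg/mL doxycycline for 72 h at 37 °C, then compound for 18-24 h at 33 °C (8-point, 3-fold, top 20 μM). Surface HRP measured by luminol luminescence; % activity normalised to 3 μM positive-control corrector; EC50 from variable-slope sigmoidal fit, three replicate plates.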

[2] = biological target: T2, F508delCFTR in primary hBE cells with F508del/F508del CFTR mutation (Homo sapiens, UniProt P13569, DEL508-508); experiment: Transepithelial Clamp Circuit on Human Bronchial Epithelial Cells Conductance Assay (hBE-TECC); type: cell-based; settings: for EC50: primary hBE cells F508del/F508del, 18-24 hours at 37° C., equivalent short circuit current, 6 concentrations
T2 construct: cells isolated from CF patients with the homozygous mutation; endogenous in cells; host or cells: primary human bronchial epithelial (hBE) cells from F508del/F508del CF patients
T2 sequence (P13569 with tags, fused parts or gaps DEL508-508): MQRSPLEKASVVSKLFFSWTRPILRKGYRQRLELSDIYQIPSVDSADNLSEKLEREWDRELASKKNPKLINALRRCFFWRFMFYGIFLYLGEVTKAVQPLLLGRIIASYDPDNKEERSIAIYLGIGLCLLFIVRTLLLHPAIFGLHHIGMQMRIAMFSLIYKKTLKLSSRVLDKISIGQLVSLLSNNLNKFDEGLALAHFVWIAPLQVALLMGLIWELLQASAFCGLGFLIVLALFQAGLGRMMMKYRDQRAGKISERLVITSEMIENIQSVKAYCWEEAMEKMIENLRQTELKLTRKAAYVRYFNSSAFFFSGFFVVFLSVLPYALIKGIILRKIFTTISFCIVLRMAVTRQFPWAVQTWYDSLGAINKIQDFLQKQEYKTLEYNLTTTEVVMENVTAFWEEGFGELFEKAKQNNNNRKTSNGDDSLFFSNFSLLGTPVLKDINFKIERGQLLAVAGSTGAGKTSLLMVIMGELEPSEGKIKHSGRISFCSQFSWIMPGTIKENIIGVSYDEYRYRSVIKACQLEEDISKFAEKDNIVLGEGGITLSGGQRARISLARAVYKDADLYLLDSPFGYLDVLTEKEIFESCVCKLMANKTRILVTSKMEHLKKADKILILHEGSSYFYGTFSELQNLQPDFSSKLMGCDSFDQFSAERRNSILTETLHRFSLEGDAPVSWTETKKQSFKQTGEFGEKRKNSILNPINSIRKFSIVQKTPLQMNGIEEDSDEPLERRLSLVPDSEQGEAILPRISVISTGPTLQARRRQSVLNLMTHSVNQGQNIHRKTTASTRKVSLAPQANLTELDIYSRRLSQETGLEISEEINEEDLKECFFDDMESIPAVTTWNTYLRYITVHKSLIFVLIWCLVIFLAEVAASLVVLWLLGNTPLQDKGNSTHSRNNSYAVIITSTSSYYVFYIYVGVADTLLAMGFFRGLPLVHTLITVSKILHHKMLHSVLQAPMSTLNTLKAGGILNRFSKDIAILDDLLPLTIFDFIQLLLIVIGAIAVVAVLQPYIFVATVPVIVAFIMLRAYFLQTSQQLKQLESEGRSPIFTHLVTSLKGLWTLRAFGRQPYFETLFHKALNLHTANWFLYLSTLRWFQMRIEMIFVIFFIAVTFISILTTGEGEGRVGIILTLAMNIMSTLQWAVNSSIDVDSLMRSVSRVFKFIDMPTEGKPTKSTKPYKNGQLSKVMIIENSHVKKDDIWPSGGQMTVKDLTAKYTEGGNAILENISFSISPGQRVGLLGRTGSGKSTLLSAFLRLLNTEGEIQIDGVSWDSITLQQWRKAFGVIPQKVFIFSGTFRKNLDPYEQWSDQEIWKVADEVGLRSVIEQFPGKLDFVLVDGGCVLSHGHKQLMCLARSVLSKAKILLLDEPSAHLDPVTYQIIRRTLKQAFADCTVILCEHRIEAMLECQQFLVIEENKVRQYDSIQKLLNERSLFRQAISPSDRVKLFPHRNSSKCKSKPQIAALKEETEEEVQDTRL
From the text: Transepithelial Clamp Circuit on Human Bronchial Epithelial Cells Conductance Assay:
A cell based assay using the primary human bronchial epithelial cells (hBE) was used as a secondary assay to test novel F508delCFTR correctors for their activity on primary hBE cells with F508del/F508del CFTR mutation. The assay used a TECC-24 (Transepithelial Clamp Circuit for 24 wells) instrument that measures the functionality of the mutated channel by measuring the equivalent short circuit current (Ieq) generated by the polarized epithelial cells. The instrument works by measuring the transepithelial potential difference (Vt) and transepithelial resistance (Rt) in an open circuit format, and the Ieq is calculated by using Ohms law (Ieq=Vt/Rt). The assay was run in a 24-well format and all 24-wells were measured at the same time point giving a higher throughput for this assay.
Primary human bronchial epithelial (hBE) cells from F508del/F508delCFTR patients were expanded from 1×10^6 to 250×10^6 cells (Neuberger T, Burton B, Clark H and VanGoor F; Cystic Fibrosis, Methods in Mole Biol 741; eds. Amaral M D and Kunzelmann K, 2011). For this purpose, cells isolated from CF patients with the homozygous mutation were seeded onto 24 well Corning (Cat #3378) filter plates that were coated with 3T3 conditioned media and grown at an air-liquid interface for 35 days using an Ultroser® G supplemented differentiation media. Apical surface mucus was removed 72 hours before the experiment using 3 mM dithiothreitol (DTT) in phosphate buffered saline (PBS). The apical surface was washed again 24 hours before the experiment using PBS. The cells were incubated with the desired dose response of the corrector compounds 18-24 hours at 37° C., 5% CO2. The corrector compounds are only added on the basolateral side of the epithelial cells.
On the day of measuring the corrector activity on the TECC, the cells were switched into a bicarbonate and serum free F-12 Coon's medium and allowed to equilibrate for 90 minutes in a CO2 free incubator. At the time of measurement, the apical and basolateral sides of the filter were bathed with the F-12 Coon's modification media (with 20 mM 4-(2-hydroxyethyl)-1-piperazineethanesulfonic acid (HEPES), pH 7.4 (using 1 M tris(hydroxymethyl)aminomethane (Tris)), and the measurements were made at 36.5° C. Transepithelial voltage (Vt) and transepithelial resistance (Rt) were measured using a 24 channel transepithelial current clamp (TECC-24). Current responses to the sequential addition of benzamil (apical 6 μM addition; for inhibiting epithelial ENaC channel), forskolin (apical and basolateral 10 μM addition; for activating the CFTR channel), control potentiator (N-(3-carbamoyl-5,5,7,7-tetramethyl-4,7-dihydro-5H-thieno[2,3-c]pyran-2-yl)-1H-pyrazole-5-carboxamide; apical and basolateral […] addition; for potentiating the CFTR channel) and bumetanide (basolateral 20 μM addition; for inhibiting the Na:2Cl:K co-transporter, an indirect measure of inhibiting the Cl-secretion driven by CFTR channel) were measured.
All plates contained negative controls (dimethyl sulfoxide, DMSO) which coupled with the control potentiator (N-(3-carbamoyl-5,5,7,7-tetramethyl-4,7-dihydro-5H-thieno[2,3-c]pyran-2-yl)-1H-pyrazole-5-carboxamide) sets the null response and positive controls (3 μM of 3-[(2R,4R)-4-({[1-(2,2-difluoro-1,3-benzodioxol-5-yl)cyclopropyl]carbonyl}amino)-7-methoxy-3,4-dihydro-2H-chromen-2-yl]benzoic acid) coupled with the control potentiator sets the 100% response to measure the correction of the mutated CFTR channel. The maximum percent activity is reported relative to the positive control value.
The % activity measured at each of the 6 test concentrations of the test compound was normalized to the on-plate positive control using the following formula: % activity=[[…]]*100 […]

[3] = relative to positive control (3 μM) coupled with control potentiator

Structure (SMILES)	EC50 [1] [nM]	Maximum % activity (%) [1] [%]	Maximum % activity (%) ([2]; testing concentration 1 μM)	EC50 [2] [nM]	Maximum % activity (%) [2, 3] [%]
COc1ccc2c(c1)O[C@@H](c1cccc(C(=O)O)c1)C[C@H]2NC(=O)C1(C)COc2cc3c(cc21)OC(F)(F)O3 (stereo partly drawn) [Example 11, 3-{(2R,4R)-4-[(2,2-difluoro-7-methyl-6,7-dihydro-2H-furo[2,3-f][1,3]benzodioxole-7-carbonyl)amino]-7-methoxy-3,4-dihydro-2H-1-benzopyran-2-yl}benzoic acid]	510	166	91	–	–
Cc1ccc(NC(=O)C2(C)COc3cc4c(cc32)OC(F)(F)O4)nc1-c1cccc(C(=O)O)c1 (stereo not drawn) [Example 2, 3-{6-[(2,2-difluoro-7-methyl-6,7-dihydro-2H-furo[2,3-f][1,3]benzodioxole-7-carbonyl)amino]-3-methylpyridin-2-yl}benzoic acid]	300	159	–	242	99
COc1ccc2c(c1)O[C@@H](c1cnc(C(=O)O)cn1)C[C@H]2NC(=O)[C@@]1(C)COc2cc3c(cc21)OC(F)(F)O3 [Example 144, 5-[(2R,4R)-4-{[(7R)-2,2-difluoro-7-methyl-6,7-dihydro-2H-furo[2,3-f][1,3]benzodioxole-7-carbonyl]amino}-7-methoxy-3,4-dihydro-2H-1-benzopyran-2-yl]pyrazine-2-carboxylic acid]	1330	157	–	550	78
Cc1ccc(NC(=O)[C@]2(C)CCc3c2ccc2c3OCO2)cc1-c1cccc(C(=O)O)c1 (single isomer, unassigned) [Example 37]	730	83	–	564	70
COc1ccc2c(c1)O[C@@H](c1ccc(CO)cn1)C[C@H]2NC(=O)[C@@]1(C)COc2cc3c(cc21)OC(F)(F)O3 [Example 174, (7R)-2,2-difluoro-N-{(2R,4R)-2-[5-(hydroxymethyl)pyridin-2-yl]-7-methoxy-3,4-dihydro-2H-1-benzopyran-4-yl}-7-methyl-6,7-dihydro-2H-furo[2,3-f][1,3]benzodioxole-7-carboxamide]	120	118	–	15	94
C[C@]1(C(=O)Nc2cc3cc(C4(CO)COC4)n(C[C@@H](O)CO)c3cc2F)COc2cc3c(cc21)OC(F)(F)O3 [Example 135, (7R)—N-{1-[(2R)-2,3-dihydroxypropyl]-6-fluoro-2-[3-(hydroxymethyl)oxetan-3-yl]-1H-indol-5-yl}-2,2-difluoro-7-methyl-6,7-dihydro-2H-furo[2,3-f][1,3]benzodioxole-7-carboxamide]	2560	58	–	2700	62
C[C@]1(C(=O)N[C@@H]2C[C@H](c3ccc(C(=O)O)cn3)Oc3cc(OC(F)(F)F)ccc32)COc2cc3c(cc21)OC(F)(F)O3 [Example 145, 6-[(2R,4R)-4-{[(7R)-2,2-difluoro-7-methyl-6,7-dihydro-2H-furo[2,3-f][1,3]benzodioxole-7-carbonyl]amino}-7-(trifluoromethoxy)-3,4-dihydro-2H-1-benzopyran-2-yl]pyridine-3-carboxylic acid]	3	118	–	0.831	91
COc1ccc2c(c1)O[C@@H](c1ccc(=O)[nH]n1)C[C@H]2NC(=O)[C@@]1(C)COc2cc3c(cc21)OC(F)(F)O3 [Example 197, (7R)-2,2-difluoro-N-[(2R,4R)-7-methoxy-2-(6-oxo-1,6-dihydropyridazin-3-yl)-3,4-dihydro-2H-1-benzopyran-4-yl]-7-methyl-6,7-dihydro-2H-furo[2,3-f][1,3]benzodioxole-7-carboxamide]	40	130	–	6	105
COc1ccc2c(c1)O[C@@H](c1ccc(C(=O)NCC(C)(C)O)cn1)C[C@H]2NC(=O)[C@@]1(C)COc2cc3c(cc21)OC(F)(F)O3 [Example 214, 6-[(2R,4R)-4-{[(7R)-2,2-difluoro-7-methyl-6,7-dihydro-2H-furo[2,3-f][1,3]benzodioxole-7-carbonyl]amino}-7-methoxy-3,4-dihydro-2H-1-benzopyran-2-yl]-N-(2-hydroxy-2-methylpropyl)pyridine-3-carboxamide]	60	114	–	16	88
C[C@]1(C(=O)N[C@@H]2C[C@H](C3(C(=O)O)CC3)Oc3cc(OC(F)(F)F)ccc32)COc2cc3c(cc21)OC(F)(F)O3 [Example 166, 1-[(2R,4R)-4-{[(7R)-2,2-difluoro-7-methyl-6,7-dihydro-2H-furo[2,3-f][1,3]benzodioxole-7-carbonyl]amino}-7-(trifluoromethoxy)-3,4-dihydro-2H-1-benzopyran-2-yl]cyclopropane-1-carboxylic acid]	30	129	–	11	84
Cc1ccc(NC(=O)[C@@]2(C)COc3cc4c(cc32)OC(F)(F)O4)nc1-c1cccc(C(=O)O)c1 [Example 6, 3-(6-{[(7R)-2,2-difluoro-7-methyl-6,7-dihydro-2H-furo[2,3-f][1,3]benzodioxole-7-carbonyl]amino}-3-methylpyridin-2-yl)benzoic acid]	290	157	–	199	103
C[C@]1(C(=O)Nc2cccc(N3CC[C@H](C(=O)O)C3)n2)COc2cc3c(cc21)OC(F)(F)O3 [Example 90, (3S)-1-(6-{[(7R)-2,2-difluoro-7-methyl-6,7-dihydro-2H-furo[2,3-f][1,3]benzodioxole-7-carbonyl]amino}pyridin-2-yl)pyrrolidine-3-carboxylic acid]	620	127	65	–	–
COc1ccc2c(c1)O[C@@H]([C@H]1CC[C@H](C(=O)N3C[C@H](O)[C@@H](O)C3)CC1)C[C@H]2NC(=O)[C@@]1(C)COc2cc3c(cc21)OC(F)(F)O3 [Example 281, (7R)—N-[(2R,4R)-2-{trans-4-[(3S,4S)-3,4-dihydroxypyrrolidine-1-carbonyl]cyclohexyl}-7-methoxy-3,4-dihydro-2H-1-benzopyran-4-yl]-2,2-difluoro-7-methyl-6,7-dihydro-2H-furo[2,3-f][1,3]benzodioxole-7-carboxamide]	470	154	–	117	134
COc1ccc2c(c1)O[C@@H](c1cnc([C@H](O)CO)cn1)C[C@H]2NC(=O)[C@@]1(C)COc2cc3c(cc21)OC(F)(F)O3 (single isomer, unassigned) [Example 192]	90	126	–	6	103
